Results published in patent publication US20110288082A1, “METHODS AND COMPOSITIONS FOR INHIBITION OF THE TRANSITIONAL ENDOPLASMIC RETICULUM ATPASE” (priority 2010, published 2011).
Like-named read-outs stand apart in the source and are kept apart here.

Columns and labels:
p97 = p97 (Homo sapiens, UniProt P55072); test: p97 ATPase assay (Kinase Glo Plus; biomol green for compounds that interfere with luciferase); assay type: biochemical
Method in brief: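 Purified p97 in 50 mM Tris pH 7.4, 20 mM MgCl2, 1 mM EDTA, 0.5 mM TCEP, preincubated 10 min with compound (0–30 μM, triplicate), then ATP 60 min at room temperature. Remaining ATP read by Kinase Glo Plus luminescence, or biomol green at 630 nm for luciferase-interfering compounds; % activity versus DMSO and no-enzyme controls, mean ± SE.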

[1] = system: p97-dependent Ub^G76V-GFP degradation in HeLa cells; test: Ub^G76V-GFP degradation (turn-over) assay; assay type: cell-based, human; settings: Homo sapiens, HeLa
Method in brief: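 HeLa cells expressing Ub^G76V-GFP were imaged, and mean GFP intensity per cell area was taken over 300-500 cells, background-subtracted and normalized to DMSO-treated basal intensity. The degradation rate constant k with compound is expressed as percent of the DMSO control k.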

[2] = read-out: IC50 (μM) Ub^G76V-GFP turn over, p97-dependent Ub^G76V-GFP degradation turn-over assay
[3] = purified p97, ATP, 60 min room temperature, mean +/- standard error
[4] = read-out: IC50 (μM) Ub^G76V-GFP turn over, Ub^G76V-GFP-expressing HeLa cells, degradation rate constant k from 90 to 180 min, mean +/- standard error

p97, sequence (P55072 2-806 limits assumed): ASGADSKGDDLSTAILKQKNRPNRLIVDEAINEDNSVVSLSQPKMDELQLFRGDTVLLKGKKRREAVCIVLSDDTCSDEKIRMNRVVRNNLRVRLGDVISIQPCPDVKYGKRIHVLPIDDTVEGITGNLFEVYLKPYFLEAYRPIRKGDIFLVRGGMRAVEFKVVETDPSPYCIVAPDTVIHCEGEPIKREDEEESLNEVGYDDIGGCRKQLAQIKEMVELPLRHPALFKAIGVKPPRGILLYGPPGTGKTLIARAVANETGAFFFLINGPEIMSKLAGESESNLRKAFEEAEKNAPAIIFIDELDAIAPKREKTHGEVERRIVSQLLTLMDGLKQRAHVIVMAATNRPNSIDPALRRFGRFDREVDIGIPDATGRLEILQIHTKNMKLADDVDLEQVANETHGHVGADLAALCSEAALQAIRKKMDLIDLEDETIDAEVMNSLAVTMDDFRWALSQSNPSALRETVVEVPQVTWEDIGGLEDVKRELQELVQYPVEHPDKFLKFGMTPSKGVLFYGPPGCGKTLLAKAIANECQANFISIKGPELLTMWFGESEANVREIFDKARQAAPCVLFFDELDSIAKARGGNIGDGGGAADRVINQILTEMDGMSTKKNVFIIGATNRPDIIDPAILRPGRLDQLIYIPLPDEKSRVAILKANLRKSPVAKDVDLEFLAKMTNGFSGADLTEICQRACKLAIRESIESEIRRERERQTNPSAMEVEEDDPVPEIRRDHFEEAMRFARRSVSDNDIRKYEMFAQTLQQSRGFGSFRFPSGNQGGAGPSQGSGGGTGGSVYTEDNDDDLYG

Compound | IC50 (p97; p97 ATPase assay) | IC50 [1, 2] | IC50 (p97; [3]) | IC50 [1, 4] | IC50 ([1]; read-out: IC50 (μM) Ub^G76V-GFP turn over)
CN1CCN(c2nc(NCc3ccccc3)c3ccccc3n2)CC1 [XLV] | 53 ± 18 µM | 31 ± 6 µM | – | – | –
N#CC(C(=O)COC(=O)CCC(=O)c1ccc2c(c1)OCCO2)=C1Nc2ccccc2N1 [XVIII] | – | – | 10 ± 4 µM | 6.3 ± 0.6 µM | –
Nc1nc(CCl)nc(Nc2ccc(Cl)c(Cl)c2)n1 [XVII] | – | – | 15 ± 4 µM | 5.7 ± 0.8 µM | –
Cc1c(Cl)cccc1Nc1nc(N)nc(CCl)n1 [XVI] | – | – | 18 ± 8 µM | 5.9 ± 1 µM | –
Nc1nc(CCl)nc(Nc2ccc(Oc3ccccc3)cc2)n1 [XV] | – | – | 14 ± 5 µM | 3.7 ± 0.6 µM | –
COc1cccc2c(NCc3ccccc3)nc(-n3c(N)nc4cc(C)c(C)cc43)nc12 [XXI-1] | 2 ± 0.4 µM | 89 ± 39 µM | – | – | –
c1ccc(CNc2nc(N3CCN(Cc4ccccc4)CC3)nc3ccccc23)cc1 [XXIII] | 33 ± 8 µM | 12 ± 1 µM | – | – | –
Clc1ccccc1-c1nc(N2CCCc3ccccc32)c2ccccc2n1 [XXIV] | > 30 µM | 11 ± 0.8 µM | – | – | –
COc1ccc(Nc2nc(Nc3ccc(OC)cc3)c3ccccc3n2)cc1 [XXV-1] | 22 ± 4 µM | – | – | – | 23 ± 3 µM
Clc1cccc(Nc2nc(Nc3ccccc3)c3ccccc3n2)c1 [XXV-2] | 34 ± 16 µM | 12 ± 2 µM | – | – | –
c1ccc(CNc2ccnc(N3CCOc4ccccc43)n2)cc1 [XX] | 2.9 ± 0.2 µM | 27 ± 3 µM | – | – | –
Cc1nc(N2CCOc3ccccc32)nc(NCc2ccccc2)c1C [X] | – | – | 1.1 ± 0.2 µM | 10 ± 1 µM | –
